Molecular target: T1, human H4 receptor (Homo sapiens, UniProt Q9H3N8)
T1 construct: expressed in transfected cells; host or cells: HEKf cells infected with baculovirus
Assay: H4 Antagonist Functional cAMP Gi Assay
Type: cell-based
Conditions: HEKf cells expressing human H4 receptor; functional antagonist pKb by Cheng-Prusoff vs histamine; read-out: Human H4 cAMP fpKb (converted)
Experimental: HEKf cells were infected overnight using baculovirus expressing the human H4 receptor, then centrifuged at 1,200 rpm for 5 min, frozen in cell freezing medium (Sigma) and stored at −150° C. On the day of assay, the cells were thawed and resuspended in HBSS with 500 nM IBMX to achieve a density of 1,500 cells/well. H4 ligands were prepared in DMSO and stamped by LabCyte ECHO acoustic dispensing at 25 nL in low volume plates. 10 μL/well cells were plated in the presence of 1 μM forskolin, subjected to centrifugation at 1,200 rpm for 1 min and incubated for 30 min prior to addition of Cisbio cAMP detection reagents to a total volume 20 μL/well. […] Following detection reagent addition and shaking at room temperature for 60 min, cAMP accumulation was measured using HTRF on a PheraStar plate reader. EC50 values were generated using a 4-parameter logistical fit equation to quantify agonist potencies. Functional antagonist affinity values were generated using the Cheng-Prusoff equation to calculate a pKb value using the antagonist assay data.

T1 sequence (Q9H3N8 whole entry): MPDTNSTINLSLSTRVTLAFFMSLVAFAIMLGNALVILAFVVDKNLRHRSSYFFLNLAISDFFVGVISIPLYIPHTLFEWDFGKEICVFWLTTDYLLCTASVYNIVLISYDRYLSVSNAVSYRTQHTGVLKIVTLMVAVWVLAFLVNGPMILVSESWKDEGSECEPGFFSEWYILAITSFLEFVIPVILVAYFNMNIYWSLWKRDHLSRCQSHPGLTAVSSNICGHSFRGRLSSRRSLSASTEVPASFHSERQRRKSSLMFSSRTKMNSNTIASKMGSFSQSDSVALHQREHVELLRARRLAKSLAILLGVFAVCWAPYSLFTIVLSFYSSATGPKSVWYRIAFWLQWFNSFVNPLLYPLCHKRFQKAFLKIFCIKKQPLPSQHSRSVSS

Point of comparison: `CN[C@@H]1CCN(c2nc(N)nc3c2OCC(C2COC2)N3)C1` (stereo partly drawn) [Example 1-13, 4-((R)-3-(Methylamino)pyrrolidin-1-yl)-7-(oxetan-3-yl)-7,8-dihydro-6H-pyrimido[5,4-b][1,4]oxazin-2-amine], Kb 0.0316 µM. Against it:
- CN[C@@H]1CCN(c2nc(N)nc3c2O[C@H](C)[C@@H](C)N3)C1 [Example 1-17, (6R,7R)-6,7-Dimethyl-4-((R)-3-(methylamino)pyrrolidin-1-yl)-7,8-dihydro-6H-pyrimido[5,4-b][1,4]oxazin-2-amine] — 2.5-fold higher, 0.0794 µM
- CN[C@@H]1CCN(c2nc(N)nc3c2OC[C@]2(C)CCCN32)C1 [Example 1-23, (S)-6a-Methyl-4-((R)-3-(methylamino)pyrrolidin-1-yl)-6a,7,8,9-tetrahydro-6H-pyrimido[5,4-b]pyrrolo[1,2-d][1,4]oxazin-2-amine] — within 1.5-fold, 0.0398 µM
- CN[C@@H]1CCN(c2ncnc3c2OC[C@@H](C2CC2)N3)C1 [Example 7-2, (R)-1-((R)-7-Cyclopropyl-7,8-dihydro-6H-pyrimido[5,4-b][1,4]oxazin-4-yl)-N-methylpyrrolidin-3-amine] — 10-fold lower, 0.00316 µM
- CN[C@@H]1CCN(c2nc(N)nc3c2OC[C@@H](C2CC2)N3)C1 [Example 1-6, (R)-7-Cyclopropyl-4-((R)-3-(methylamino)pyrrolidin-1-yl)-7,8-dihydro-6H-pyrimido[5,4-b][1,4]oxazin-2-amine] — 50-fold lower, 0.000631 µM
- CC(C)[C@H]1CCOc2c(nc(N)nc2N2CC[C@@H](N)C2)N1 [Example 12-2, (R)-4-((R)-3-Aminopyrrolidin-1-yl)-8-isopropyl-6,7,8,9-tetrahydropyrimido[5,4-b][1,4]oxazepin-2-amine] — within 1.5-fold, 0.0398 µM
- COC(C)(C)[C@@H]1COc2c(nc(N)nc2N2CC[C@@H](N)C2)N1 [Example 2-6, (S)-4-((R)-3-Aminopyrrolidin-1-yl)-7-(2-methoxypropan-2-yl)-7,8-dihydro-6H-pyrimido[5,4-b][1,4]oxazin-2-amine] — 1.6-fold lower, 0.02 µM
- CN[C@@H]1CCN(c2nc(N)nc3c2OCC[C@@H]2CCCN32)C1 [Example 11-10, (S)-4-((R)-3-(Methylamino)pyrrolidin-1-yl)-6,7,7a,8,9,10-hexahydropyrimido[5,4-b]pyrrolo[1,2-d][1,4]oxazepin-2-amine] — 25-fold higher, 0.794 µM
- CC[C@@H]1COc2c(nc(N)nc2N2CC[C@@H](N)C2)N1 [Example 2-1, (R)-4-((R)-3-Aminopyrrolidin-1-yl)-7-ethyl-7,8-dihydro-6H-pyrimido[5,4-b][1,4]oxazin-2-amine] — 10-fold lower, 0.00316 µM
- CC(C)[C@@H]1COc2c(nc(N)nc2N2CC(N)C2)N1 [Example 4-2, (R)-4-(3-Aminoazetidin-1-yl)-7-isopropyl-7,8-dihydro-6H-pyrimido[5,4-b][1,4]oxazin-2-amine] — 2-fold higher, 0.0631 µM
- CN[C@@H]1CCN(c2ncnc3c2OC(C)CN3)C1 (stereo partly drawn) [Example 7-5, (3R)—N-Methyl-1-(6-methyl-7,8-dihydro-6H-pyrimido[5,4-b][1,4]oxazin-4-yl)pyrrolidin-3-amine] — 7.9-fold higher, 0.251 µM
- CN[C@@H]1CCN(c2nc(N)nc3c2O[C@@H](C)[C@H](C)N3)C1 [Example 1-18, (6S,7S)-6,7-Dimethyl-4-((R)-3-(methylamino)pyrrolidin-1-yl)-7,8-dihydro-6H-pyrimido[5,4-b][1,4]oxazin-2-amine] — 10-fold higher, 0.316 µM
- CO[C@@H](C)[C@@H]1COc2c(nc(N)nc2N2CC[C@@H](N)C2)N1 [Example 2-5, (S)-4-((R)-3-Aminopyrrolidin-1-yl)-7-((S)-1-methoxyethyl)-7,8-dihydro-6H-pyrimido[5,4-b][1,4]oxazin-2-amine] — 2.5-fold higher, 0.0794 µM
- CNC1CN(c2nc(N)nc3c2OCC[C@H](C(C)C)N3)C1 [Example 13-2, (R)-8-Isopropyl-4-(3-(methylamino)azetidin-1-yl)-6,7,8,9-tetrahydropyrimido[5,4-b][1,4]oxazepin-2-amine] — 2-fold lower, 0.0158 µM
- CC[C@@H]1COc2c(nc(N)nc2N2CC(NC)C2)N1 [Example 3-1, (R)-7-Ethyl-4-(3-(methylamino)azetidin-1-yl)-7,8-dihydro-6H-pyrimido[5,4-b][1,4]oxazin-2-amine] — 16-fold lower, 0.002 µM
- CO[C@H](C)[C@@H]1COc2c(ncnc2N2CC[C@@H](N)C2)N1 [Example 8-2, (R)-1-((S)-7-((R)-1-Methoxyethyl)-7,8-dihydro-6H-pyrimido[5,4-b][1,4]oxazin-4-yl)pyrrolidin-3-amine] — 20-fold higher, 0.631 µM
- CNC1CN(c2nc(N)nc3c2OC[C@@H](C2CC2)N3)C1 [Example 3-3, (R)-7-Cyclopropyl-4-(3-(methylamino)azetidin-1-yl)-7,8-dihydro-6H-pyrimido[5,4-b][1,4]oxazin-2-amine] — 4-fold lower, 0.00794 µM
- CO[C@H](C)[C@@H]1COc2c(nc(N)nc2N2CC[C@@H](N)C2)N1 [Example 2-4, (S)-4-((R)-3-Aminopyrrolidin-1-yl)-7-((R)-1-methoxyethyl)-7,8-dihydro-6H-pyrimido[5,4-b][1,4]oxazin-2-amine] — 1.6-fold higher, 0.0501 µM
- CNC1CN(c2nc(N)nc3c2OC[C@@H]([C@H](C)OC)N3)C1 [Example 3-5, (S)-7-((S)-1-Methoxyethyl)-4-(3-(methylamino)azetidin-1-yl)-7,8-dihydro-6H-pyrimido[5,4-b][1,4]oxazin-2-amine] — 1.6-fold lower, 0.02 µM
- CN[C@@H]1CCN(c2nc(N)nc3c2OCC[C@H](C(C)C)N3)C1 [Example 11-6, (R)-8-Isopropyl-4-((R)-3-(methylamino)pyrrolidin-1-yl)-6,7,8,9-tetrahydropyrimido[5,4-b][1,4]oxazepin-2-amine] — 2.5-fold lower, 0.0126 µM
- CN[C@@H]1CCN(c2ncnc3c2OCC[C@H](C(C)C)N3)C1 [Example 14-2, (R)-1-((R)-8-Isopropyl-6,7,8,9-tetrahydropyrimido[5,4-b][1,4]oxazepin-4-yl)-N-methylpyrrolidin-3-amine] — 3.2-fold higher, 0.1 µM
- CN[C@@H]1CCN(c2nc(N)nc3c2O[C@@H](C)[C@@H](C)N3)C1 [Example 1-16, (6S,7R)-6,7-Dimethyl-4-((R)-3-(methylamino)pyrrolidin-1-yl)-7,8-dihydro-6H-pyrimido[5,4-b][1,4]oxazin-2-amine] — the same, 0.0316 µM
- CCC1CNc2nc(N)nc(N3CC[C@@H](NC)C3)c2OC1 (stereo partly drawn) [Example 11-8, 7-Ethyl-4-((R)-3-(methylamino)pyrrolidin-1-yl)-6,7,8,9-tetrahydropyrimido[5,4-b][1,4]oxazepin-2-amine] — the same, 0.0316 µM
- CN[C@@H]1CCN(c2nc(N)nc3c2OCCCN3)C1 [Example 11-1, (R)-4-(3-(Methylamino)pyrrolidin-1-yl)-6,7,8,9-tetrahydropyrimido[5,4-b][1,4]oxazepin-2-amine] — 6.3-fold higher, 0.2 µM
- CN[C@@H]1CCN(c2nc(N)nc3c2OCC(C)CN3)C1 (stereo partly drawn) [Example 11-7, 7-Methyl-4-((R)-3-(methylamino)pyrrolidin-1-yl)-6,7,8,9-tetrahydropyrimido[5,4-b][1,4]oxazepin-2-amine] — 7.9-fold higher, 0.251 µM
- CC[C@@H]1COc2c(nc(N)nc2N2CC(N)C2)N1 [Example 4-1, (R)-4-(3-Aminoazetidin-1-yl)-7-ethyl-7,8-dihydro-6H-pyrimido[5,4-b][1,4]oxazin-2-amine] — 2.5-fold higher, 0.0794 µM
- CN[C@@H]1CCN(c2nc(N)nc3c2OCC(CC(C)C)N3)C1 (stereo partly drawn) [Example 1-7, 7-isobutyl-4-((R)-3-(methylamino)pyrrolidin-1-yl)-7,8-dihydro-6H-pyrimido[5,4-b][1,4]oxazin-2-amine] — 1.6-fold lower, 0.02 µM
- CN[C@@H]1CCN(c2nc(C)nc3c2OCC(C(C)C)N3)C1 (stereo partly drawn) [Example 10-1, (3R)-1-(7-Isopropyl-2-methyl-7,8-dihydro-6H-pyrimido[5,4-b][1,4]oxazin-4-yl)-N-methylpyrrolidin-3-amine] — 13-fold higher, 0.398 µM
- CN[C@@H]1CCN(c2nc(N)nc3c2O[C@H](C)[C@H](C)N3)C1 [Example 1-19, (6R,7S)-6,7-Dimethyl-4-((R)-3-(methylamino)pyrrolidin-1-yl)-7,8-dihydro-6H-pyrimido[5,4-b][1,4]oxazin-2-amine] — 2.5-fold higher, 0.0794 µM
- CNC1CN(c2nc(N)nc3c2OC[C@@H](C(C)(C)OC)N3)C1 [Example 3-6, (S)-7-(2-Methoxypropan-2-yl)-4-(3-(methylamino)azetidin-1-yl)-7,8-dihydro-6H-pyrimido[5,4-b][1,4]oxazin-2-amine] — within 1.5-fold, 0.0251 µM
- CN[C@@H]1CCN(c2ncnc3c2OC[C@@H]([C@@H](C)OC)N3)C1 [Example 7-4, (R)-1-((S)-7-((R)-1-Methoxyethyl)-7,8-dihydro-6H-pyrimido[5,4-b][1,4]oxazin-4-yl)-N-methylpyrrolidin-3-amine] — the same, 0.0316 µM
- CN[C@@H]1CCN(c2nc(N)nc3c2OC[C@@H]([C@H](C)OC)N3)C1 [Example 1-11, (S)-7-((S)-1-Methoxyethyl)-4-((R)-3-(methylamino)pyrrolidin-1-yl)-7,8-dihydro-6H-pyrimido[5,4-b][1,4]oxazin-2-amine] — 2-fold lower, 0.0158 µM
- CN[C@@H]1CCN(c2nc(N)nc3c2OCC(C(C)C)N3C)C1 (stereo partly drawn) [Example 1-20, 7-Isopropyl-8-methyl-4-((R)-3-(methylamino)pyrrolidin-1-yl)-7,8-dihydro-6H-pyrimido[5,4-b][1,4]oxazin-2-amine] — 3.2-fold higher, 0.1 µM
- CN[C@@H]1CCN(c2nc(N)nc3c2OCC(C)N3)C1 (stereo partly drawn) [Example 1-2, 7-Methyl-4-((R)-3-(methylamino)pyrrolidin-1-yl)-7,8-dihydro-6H-pyrimido[5,4-b][1,4]oxazin-2-amine] — 2.5-fold lower, 0.0126 µM

Molecular target: hERG (Homo sapiens, UniProt Q12809)
Sequence (Q12809 whole entry): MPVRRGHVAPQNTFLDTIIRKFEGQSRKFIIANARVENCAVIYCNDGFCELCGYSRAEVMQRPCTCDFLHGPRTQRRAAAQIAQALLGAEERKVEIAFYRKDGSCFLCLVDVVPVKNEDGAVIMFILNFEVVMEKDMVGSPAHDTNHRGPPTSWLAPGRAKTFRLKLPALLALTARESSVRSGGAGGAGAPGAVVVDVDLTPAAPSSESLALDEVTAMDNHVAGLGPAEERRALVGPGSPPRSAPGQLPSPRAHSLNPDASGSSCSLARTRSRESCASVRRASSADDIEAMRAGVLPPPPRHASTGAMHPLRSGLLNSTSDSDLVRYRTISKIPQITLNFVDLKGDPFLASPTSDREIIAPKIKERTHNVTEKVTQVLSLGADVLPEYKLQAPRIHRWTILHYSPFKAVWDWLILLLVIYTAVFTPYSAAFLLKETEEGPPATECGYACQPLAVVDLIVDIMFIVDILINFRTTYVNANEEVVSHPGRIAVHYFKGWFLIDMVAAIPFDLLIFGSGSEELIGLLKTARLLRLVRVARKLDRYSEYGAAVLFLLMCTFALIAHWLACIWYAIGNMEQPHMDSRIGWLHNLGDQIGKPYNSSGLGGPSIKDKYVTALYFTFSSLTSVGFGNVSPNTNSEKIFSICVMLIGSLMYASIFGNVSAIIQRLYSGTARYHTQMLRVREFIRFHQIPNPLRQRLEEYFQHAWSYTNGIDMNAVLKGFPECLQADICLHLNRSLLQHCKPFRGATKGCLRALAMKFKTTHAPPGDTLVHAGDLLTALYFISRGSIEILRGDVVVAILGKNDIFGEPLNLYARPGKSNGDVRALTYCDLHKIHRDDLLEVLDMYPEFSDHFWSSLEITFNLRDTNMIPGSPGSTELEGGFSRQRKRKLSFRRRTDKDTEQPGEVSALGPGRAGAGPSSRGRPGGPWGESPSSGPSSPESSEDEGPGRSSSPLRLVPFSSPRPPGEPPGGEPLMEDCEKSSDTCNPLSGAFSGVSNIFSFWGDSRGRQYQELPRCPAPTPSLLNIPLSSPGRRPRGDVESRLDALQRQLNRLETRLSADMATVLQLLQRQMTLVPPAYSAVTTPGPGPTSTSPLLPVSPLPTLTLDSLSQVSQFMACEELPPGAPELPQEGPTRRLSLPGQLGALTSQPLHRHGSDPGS
Assay: hERG single-concentration assay (QPatch automated patch clamp, CHO cells, 30 μM)
Type: cell-based
Conditions: CHO cells stably expressing hERG
Description: Series resistance (4-15 MΩ) was compensated by >80%.

Compound `CN[C@@H]1CCN(c2cc(NCC3CC3)nc(N)n2)C1` [PF-3893787, reference compound] has an inhibition at 30 µM of 67%.

Source: patent US20240317775A1, “H4 Antagonist Compounds” (HEPTARES THERAPEUTICS LIMITED, priority 2020, published 2024)
